Assays:
mice = test: Inhibition of spontaneous motor activity (sedative effect); format: in vivo
Procedure: The effect on spontaneous motor activity was investigated according to Borsy and co-workers [Borsy, J. et al, Arch. Int. Pharmacodyn., 124, 180–190 (1960)] in a ten channel Dews instrument, with 1—1 animal in each channel. Animals were placed into the instrument 60 min after per os treatment with either vehicle or test compound, and interruptions of infrared beams were recorded for 30 min. […] Diazepam [7-chloro-1,3-dihydro-1-methyl-5-phenyl-2H-1,4-benzodiazepine-2-one] was used as reference compound.

rats = test: Elevated plus-maze (anxiolytic effect); format: in vivo, rat; conditions: male Sprague-Dawley rats, po, tested 60 min after treatment, 5 min test time
Source text: Tests have been performed as described by Pellow and co-workers [J. Neurosci. Methods, 14, 149 (1985)]. A wooden cross, 15 cm wide with 100 cm long arms was used for the experiments. The sides and ends of two opposite arms of the cross were equipped with 40 cm high walls, however, the arms were open to the 15×15 cm central area (closed arms). The two other opposite arms were not encircled by walls (open arms).
Male Sprague-Dawley rats weighing 200–220 g were used for the experiments. The animals were placed in the central area of the equipment 60 min after treatment and the following four parameters have been observed for the 5 min test time: • time spent in the open arms, • time spent in the closed arms, • number of entries into the open arms, • number of entries into the closed arms.
The effect was expressed as percent increase in either the time (measured in sec) spent in the open arms or number of entries into the open arms. MEDs (minimal effective dose) were determined for each compound regarding the time spent in the open arms. Results are summarized in Table I. Buspiron [8-[4-[4-(2-pyrimidinyl)-1-piperazinyl]-butyl]-8-azaspiro[4,5]decan-7,9-dion] was used as reference compound.

[1] = mice, per os, placed in Dews instrument 60 min after treatment, recorded for 30 min

SMILES: CN1C(=O)CN=C(c2ccccc2)c2cc(Cl)ccc21 [Diazepam, 7-chloro-1,3-dihydro-1-methyl-5-phenyl-2H-1,4-benzodiazepine-2-one, reference compound]
- ID50 (50 percent inhibitory dose), spontaneous motor activity (mice; [1]): 7.0 mg/kg po

SMILES: Cn1ncc(NCCN2CCC(C(=O)c3ccc(F)cc3O)CC2)cc1=O [Example 1, 5-{2-[4-[1-(4-fluoro-2-hydroxy-phenyl)-methanoyl]-piperidine-1-yl]-ethylamino}-2-methyl-2H-pyridazine-3-one]
- MED (minimal effective dose) regarding the time spent in the open arms (rats): ≦0.03 mg/kg po
- melting point: 200 to 202 °C
- ID50 (50 percent inhibitory dose), spontaneous motor activity (mice; mouse, in vivo, 60 min): >100 mg/kg po

SMILES: CC(CNc1cnn(C)c(=O)c1)N1CCC(C(=O)c2ccc(F)cc2O)CC1 (stereo not shown) [Example 3, 5-{2-[4-[1-(4-fluoro-2-hydroxy-phenyl)-methanoyl]-piperidine-1-yl]-propylamino}-2-methyl-2H-pyridazine-3-one]
- MED (minimal effective dose) regarding the time spent in the open arms (rats): ≦0.3 mg/kg po
- melting point: 199 to 201 °C
- ID50 (50 percent inhibitory dose), spontaneous motor activity (mice; mouse, in vivo, 60 min): >100 mg/kg po

SMILES: O=C1CC2(CCCC2)CC(=O)N1CCCCN1CCN(c2ncccn2)CC1 [Buspiron, 8-[4-[4-(2-pyrimidinyl)-1-piperazinyl]-butyl]-8-azaspiro[4,5]decan-7,9-dion, reference compound]
- MED (minimal effective dose) regarding the time spent in the open arms (rats): 3.0 mg/kg po

SMILES: Cl.Cl.O=C(c1ccc(F)cc1O)C1CCN(CCNc2cn[nH]c(=O)c2)CC1 [Example 2, 5-{2-[4-[1-(4-fluoro-2-hydroxy-phenyl)-methanoyl]-piperidine-1-yl]-ethylamino}-2H-piridazine-3-one-dihydrochloride]
- MED (minimal effective dose) regarding the time spent in the open arms (rats): ≦0.3 mg/kg po
- ID50 (50 percent inhibitory dose), spontaneous motor activity (mice; [1]): >100 mg/kg po
